# Results: Sander's compilation of Henry's law constants (doi:10.1021/es00033a018)
# Experiment: Henry solubility constant Hcp at 298.15 K (mol/(m3 Pa))
# Conditions: reference: Wright et al. (1992)
row,SMILES,Henry solubility constant Hcp
1,BrC(Br)Br [tribromomethane],0.024
2,ClCCl [dichloromethane],0.0039
3,"ClCC(Cl)Cl [1,1,2-trichloroethane]",0.011
4,"CC(Cl)CCl (stereo unspecified) [1,2-dichloropropane]",0.0036
5,BrCBr [dibromomethane],0.011
6,"ClCC(Cl)(Cl)Cl [1,1,1,2-tetrachloroethane]",0.004
7,"CC(Cl)(Cl)Cl [1,1,1-trichloroethane]",0.0006
8,"ClC=CCCl [1,3-dichloropropene]",0.0064
9,"ClC(Cl)C(Cl)Cl [1,1,2,2-tetrachloroethane]",0.022
10,ClC=C(Cl)Cl [trichloroethene],0.0011
11,ClC(Cl)(Cl)Cl [tetrachloromethane],0.00029
